Data on nine compounds can be found in PubChem BioAssay (NCI).

Usually TGI stands for the concentration at which net growth stops. A high value points to lower sensitivity of the cells.

Some test systems named below: SK-OV-3 ovarian; TK-10 renal; 786-0 renal; COLO 205 colon; SF-268 CNS; NCI-H23 lung; HS 578T breast; KM12 colon; NCI-H522 lung; UO-31 renal; DU-145 prostate; UACC-257 melanoma; HOP-62 NSCLC; SF-295 CNS; SK-MEL-28 melanoma; UACC-62 melanoma.
Holding throughout (test): DTP human tumour cell line panel, 48 h

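48-hour exposure; five concentrations; linearly interpolated endpoints. The concentration for full growth arrest is given as TGI.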 A value given as a limit tells only on which side of the number the result lay.

Regarding `O=C1CSC(c2cccc(Oc3ccccc3)c2)N1c1cccc(Cl)c1Cl` (centres undefined), the total growth inhibition concentration (TGI) with SK-OV-3 ovarian is over 100 µM; in the assay on TK-10 renal, over 100 µM; with 786-0 renal, 87.7 µM; in the assay on COLO 205 colon, 44.1 µM; in the assay with SF-268 CNS, 60 µM; with NCI-H23 lung it was 91.4 µM. For the same compound, the TGI is 84.7 µM in the assay on HS 578T breast; over 100 µM with KM12 colon; 61.1 µM in the assay on NCI-H522 lung; over 100 µM in the assay with UO-31 renal; over 100 µM in the assay with DU-145 prostate; 61.5 µM with UACC-257 melanoma. Further, the concentration for total growth inhibition (TGI) with HOP-62 NSCLC is over 100 µM; in the assay with SF-295 CNS, over 100 µM; in the assay on SK-MEL-28 melanoma, over 100 µM; with UACC-62 melanoma, 46.9 µM.
As to `COc1ccc(S(=O)(=O)Nc2ccc(-c3csc(N4C(=O)/C(=C/c5cccs5)N=C4c4ccccc4)n3)cc2)cc1Cl`, the TGI in the assay with SK-OV-3 ovarian was over 100 µM; in the assay on TK-10 renal it was over 100 µM; with 786-0 renal, over 100 µM; in the assay with COLO 205 colon, over 100 µM; with SF-268 CNS, over 100 µM; in the assay on NCI-H23 lung, 59.6 µM. Moreover, the total growth inhibition concentration (TGI) in the assay on HS 578T breast is 93.3 µM; in the assay with KM12 colon, over 100 µM; with NCI-H522 lung, 62.8 µM; in the assay with UO-31 renal it was 86.3 µM; with DU-145 prostate it was over 100 µM; in the assay on UACC-257 melanoma, over 100 µM. The concentration for total growth inhibition (TGI) was 45.8 µM in the assay with HOP-62 NSCLC, over 100 µM in the assay on SF-295 CNS, over 100 µM in the assay on SK-MEL-28 melanoma and over 100 µM in the assay with UACC-62 melanoma.
With `O=C1NC(N2CCCCC2)=N/C1=C\c1ccccc1`, the concentration for total growth inhibition (TGI) in the assay on SK-OV-3 ovarian, with TK-10 renal, in the assay with 786-0 renal, with COLO 205 colon, in the assay with SF-268 CNS and in the assay on NCI-H23 lung was over 100 µM each time. Also, the TGI with HS 578T breast, with KM12 colon, in the assay on NCI-H522 lung, with UO-31 renal, in the assay on DU-145 prostate and with UACC-257 melanoma was over 100 µM in each case. Also, the TGI with HOP-62 NSCLC, in the assay on SF-295 CNS, in the assay with SK-MEL-28 melanoma and in the assay with UACC-62 melanoma was over 100 µM throughout.
Consider `CCCCSC1=N/C(=C\c2ccc(N(C)C)cc2)C(Cl)=N1`, for which the TGI in the assay on SK-OV-3 ovarian, in the assay with TK-10 renal, in the assay on 786-0 renal, in the assay on COLO 205 colon, in the assay with SF-268 CNS and with NCI-H23 lung was over 100 µM each time. The TGI with HS 578T breast, in the assay on KM12 colon, in the assay with NCI-H522 lung, with UO-31 renal, in the assay on DU-145 prostate and in the assay on UACC-257 melanoma was over 100 µM throughout. For the same compound, the TGI in the assay on HOP-62 NSCLC, with SF-295 CNS, with SK-MEL-28 melanoma and in the assay on UACC-62 melanoma was over 100 µM throughout.
Turning to `N[C@@H](Cc1ccc2oc3cc(=O)c4ccccc4c-3nc2c1)C(=O)O`, the TGI in the assay with SK-OV-3 ovarian was over 100 µM; in the assay on TK-10 renal, over 100 µM; in the assay with 786-0 renal it was over 100 µM; in the assay with COLO 205 colon, 38.9 µM; in the assay with SF-268 CNS, over 100 µM; in the assay on NCI-H23 lung, 51.3 µM. For the same compound, the concentration for total growth inhibition (TGI) in the assay on HS 578T breast was over 100 µM; in the assay on KM12 colon, over 100 µM; in the assay with NCI-H522 lung it was over 100 µM; in the assay on UO-31 renal, over 100 µM; in the assay with DU-145 prostate it was 34.7 µM; in the assay with UACC-257 melanoma, 42.3 µM. Moreover, the total growth inhibition concentration (TGI) with HOP-62 NSCLC was 48.2 µM; in the assay on SF-295 CNS it was 64 µM; in the assay with SK-MEL-28 melanoma, over 100 µM; in the assay on UACC-62 melanoma, 57.9 µM.
For `ClCCc1ccccc1CC1=NCCc2ccccc21`, the TGI is over 100 µM in the assay with SK-OV-3 ovarian; over 100 µM in the assay with TK-10 renal; over 100 µM with 786-0 renal; 63.5 µM with COLO 205 colon; over 100 µM in the assay with SF-268 CNS; 74.5 µM with NCI-H23 lung. Further, the TGI with HS 578T breast is over 100 µM; in the assay on KM12 colon, over 100 µM; with NCI-H522 lung it was 44 µM; in the assay on UO-31 renal, 38.3 µM; in the assay with DU-145 prostate, over 100 µM; with UACC-257 melanoma, over 100 µM. In addition, the concentration for total growth inhibition (TGI) with HOP-62 NSCLC is over 100 µM; in the assay on SF-295 CNS, over 100 µM; in the assay on SK-MEL-28 melanoma it was over 100 µM; with UACC-62 melanoma it was 98.9 µM.
On to `Fc1cc2nc3n(c2cc1F)C(c1c(Cl)cccc1Cl)SC3` (centres undefined), for which the TGI was 30.6 µM in the assay on SK-OV-3 ovarian; 32.2 µM in the assay on TK-10 renal; 28.3 µM with 786-0 renal; 36.3 µM in the assay on COLO 205 colon; 34.4 µM with SF-268 CNS; 35.7 µM in the assay on NCI-H23 lung. For the same compound, the total growth inhibition concentration (TGI) worked out at 53.2 µM with HS 578T breast; 26.2 µM in the assay with KM12 colon; 35.1 µM with NCI-H522 lung; 29.3 µM in the assay on UO-31 renal; 32.2 µM with DU-145 prostate; 27 µM in the assay on UACC-257 melanoma. In addition, the TGI with HOP-62 NSCLC was found to be 29.6 µM; in the assay on SF-295 CNS, 26.2 µM; with SK-MEL-28 melanoma, 28.6 µM; with UACC-62 melanoma, 26.4 µM.
`CC1(C)CN=C(Nc2ccc(F)c(Cl)c2)S1`: the TGI in the assay with SK-OV-3 ovarian, in the assay with TK-10 renal, in the assay on 786-0 renal, in the assay on COLO 205 colon, with SF-268 CNS and in the assay with NCI-H23 lung was over 100 µM in each case. Further, the TGI in the assay on HS 578T breast, in the assay on KM12 colon, in the assay on NCI-H522 lung, in the assay with UO-31 renal, in the assay with DU-145 prostate and in the assay on UACC-257 melanoma was over 100 µM each time. In addition, the TGI with HOP-62 NSCLC, in the assay on SF-295 CNS, in the assay with SK-MEL-28 melanoma and in the assay on UACC-62 melanoma was over 100 µM throughout.
In the case of `C=COC(=O)N1C2CCCC(Cl)(C(C)=O)C1CC2` (centres undefined), the TGI with SK-OV-3 ovarian, in the assay with TK-10 renal, with 786-0 renal, in the assay with COLO 205 colon, in the assay on SF-268 CNS and with NCI-H23 lung was over 100 µM throughout. Moreover, the TGI in the assay with HS 578T breast, in the assay on KM12 colon, with NCI-H522 lung, with UO-31 renal, with DU-145 prostate and in the assay on UACC-257 melanoma was over 100 µM each time. In addition, the TGI in the assay on HOP-62 NSCLC, in the assay on SF-295 CNS, in the assay on SK-MEL-28 melanoma and in the assay on UACC-62 melanoma was over 100 µM throughout.
